According to patent US20050214336A1, “Parasite control in animals” (priority 2002, published 2005):

System: Musca domestica first instars
Assay: Development of Musca domestica larvae on cattle dung following oral treatment of the animal (feed-through test)
Format: in vivo
Details: cattle 300 kg, 3 g active compound in capsule on three consecutive days, dung samples
From the text: Test for the development of Musca domestica larvae on cattle dung following oral treatment of the animal with active-compound-comprising formulation (feed-through test) Cattle 300 kg in weight are fed on three consecutive days with in each case 3 g of active compound in a capsule formulation. Dung samples of treated animals are populated with Musca domestica first instars, and the development into adult flies was monitored in comparison with the development of dung samples of an untreated control. Those substances which reliably prevent the development of adults over a period of four weeks are assessed as active.

## CCC(C)(C)C(=O)OC1=C(c2ccc(Cl)cc2Cl)C(=O)OC12CCCCC2 [compound A, 2,2-dimethyl-, 3-(2,4-dichlorophenyl)-2-oxo-1-oxaspiro[4,5]dec-3-en-4-yl-butanoate]
After day 3, long-term (period of four weeks)
  long-term activity (prevention of development into adult flies): 100%
Up to day 3 after the treatment
  activity (prevention of development into adult flies): 50%
